The values below come from patent EP2487185A1, “Hexapeptide with improved activity in the repair of cellular DNA of dermal cells” (Clinuvel Pharmaceuticals Limited, priority 2011, dated 2012).

Non-standard residues stand in square brackets, D forms with d. Nle = CCCC[C@H](N)C(=O)O

What all share (assay type): cell-based, human
Assay [1] has as its system strains 1505b and 1513c. The experiment in a line: Tyrosinase activity as a measure of stability, overall. The method, then:
(§1) With continued reference to Figs. 7, 8 and 9, to determine the stability of CUV9900 versus that of NDP-MSH and α-MSH, melanocytes were treated with 1 nM of each peptide, namely with CUV9900, NDP-MSH and α-MSH, for a total of 6 days, or with 1 nM peptides that were incubated for 5 hours at 37 °C prior to addition to the cultures, every other day, for a total of 6 days. Tyrosinase activity was measured at the end of treatment. In the experiments, cell number represents the mean percent of control of 3 determinations/ group ±SE, and tyrosinase activity data represent the mean percent of control of 6 determinations ±S.E. It should be noted that for the sake of reproducibility the experiment of strain 1513c of Fig. 9 was performed once more 6 months later than the experiment of Fig. 7.
Melanocytes were treated for 3 days with the designated concentrations of CUV9900, NDP-MSH, or MSH, then maintained in absence of peptides for 4 days. Tyrosinase activity was determined 3 days after treatment.

In another assay the test system is melanocytes strain 105c. The experiment in a line: cAMP levels (125I radioimmunoassay), dose-response. The conditions noted are these: 45 min, 0.1 mM IBMX. As for the experimental part: (§2) Dose-response experiments were carried out on three melanocytic strains, namely strains 1513c, 1505b and 105c melanocytes were treated with 1 pM-10 nM CUV9900 or NDP-MSH, or with 0.1-10 nM MSH for 45 minutes in the presence of 0.1 mM isobutyl methylxanthine (IBMX). The results obtained from strain 1513c are shown in Fig. 3, the results obtained from strain 1505b are shown in Fig. 5a and the results obtained from strain 105c are shown in Fig. 5b. The strains 1505b and 1513c were obtained from the same human adult while the strain 105c was obtained from another human adult. Cyclic AMP is the second messenger for the melanocortin-1 receptor, and assessment is usually performed indicating cellular activity reflective of melanogenesis. Cyclic AMP levels were determined using ^125I-labeled radioimmunoassay kit (Perkin Elmer, Waltham, MA), in human melanocytes that were treated with 0 (control), 0.1-10.0 nM α-MSH, or 0.001-10 nM NDP-MSH or 0.001-10.0 nM CUV 9900 for 45 min. in the presence of 0.1 mM IBMX, a phosphodiesterase inhibitor to prevent cAMP degradation. Triplicate wells were included in each group, and duplicate samples from each well were assayed for cAMP levels. Each data point is the mean percent of control of 6 determinations/group ±S.E.

The next assay deals with melanocytes strain 1505b. The experiment in a line: cAMP levels (125I radioimmunoassay), dose-response. The note with it: at 1 nM, 45 min, 0.1 mM IBMX. The method, then: as §2
(In general: Changes in cAMP serve as a functional read-out for many G protein-coupled receptors.)

For assay [2], the system named is strains 1505b and 1513c. The assay is described as follows: Cell proliferation as a measure of stability, overall. The conditions noted are these: all experiments on both strains 1505b and 1513c. The method, then: as §1
Peptides were incubated at 37 degrees Celsius for 5 hours and then split into groups. Cell proliferation was a measure of stability, whereby the experiments on strain 1513c were divided in period 1 and 2 under standard conditions.

Another assay relates to melanocyte strain 103c. The experiment in a line: UV-induced apoptosis by Annexin Va staining, flow cytometry. The conditions noted are these: 1 nM, 4 days prior and 1 day following 105 mJ/cm^2 UV. As for the experimental part:
With reference to Fig. 12 and 13, melanocytes were maintained for the duration of the experiment in medium lacking bovine pituitary extract (BPE) to determine the survival effect of α-MSH or its analogs in the absence of the anti-apoptotic effect of TPA. Melanocytes were treated with 0, 1 nM α-MSH, 1 µM Forskolin, or 1 nM NDP-MSH or CUV9900 for 4 days prior to, and 24 h after exposure to a dose of 105 mJ/cm^2 UV, then stained for Annexin Va staining. The data are represented as percent increase above control, with triplicate dishes included in each group.
Comparison of the effect of CUV9900, NDP-MSH and MSH on the UV-induced apoptosis were made in the melanocyte strains 103c and melanocyte strain 1513c of Figs. 12 and 13, respectively. Both strains were treated with 1 nM CUV9900, NDP and MSH, respectively for 4 days prior and 1 day following irradiation. Floating as well as attached cells were harvested and stained for Annexin V, and analyzed by flow cytometry.
In general terms: In flow cytometry, cells or beads pass a laser one at a time.

The next assay concerns melanocytic strain 10.3c. The assay is described as follows: UV-induced generation of hydrogen peroxide (luminol luminescence). The conditions noted are these: 1 nM, 105 mJ/cm^2 UV, 0, 30 and 45 minutes after UV. The text has this:
With reference to Figs. 10 and 11, melanocytes were irradiated with a bank of FS 20 lamps, with 75% emission in the UVB, and 25% emission in the UVA spectra, with peak emission at 313 nm wavelength. Any emission of UVC rays from the UV source (FS 20 lamps) was blocked by Kodacel filter. Prior to irradiation, the culture medium was replaced by PBS, which was removed after UV exposure, and fresh medium added.
Melanocytes were irradiated with 105 mJ/cm^2 UV, and treated immediately while in PBS with 0, 1 nM α-MSH or 1 nM CUV9900. Generation of hydrogen peroxide, representative of reactive oxygen species (ROS), was determined by measuring the luminescence of luminol at 0, 30, and 45 min after UV exposure. Triplicate dishes were included in each group, and duplicate samples from each dish were used for measurement of hydrogen peroxide at each time point. Each data point represents the mean of 6 determinations/group ±S.E.

Regarding “Ac-Nle-Glu His-D-Phe-Arg-Trp-NH2 (Ac-[Nle]EH[dF]RW-NH2; SMILES CCCC[C@H](NC(C)=O)C(=O)N[C@@H](CCC(=O)O)C(=O)N[C@@H](Cc1c[nH]cn1)C(=O)N[C@H](Cc1ccccc1)C(=O)N[C@@H](CCCNC(=N)N)C(=O)N[C@@H](Cc1c[nH]c2ccccc12)C(N)=O) [CUV9900, hexapeptide, alpha-MSH analogue]”, in the assay with strains 1505b and 1513c [1], the “superior tyrosinase activity in comparison to MSH” value is listed as 42.5% and the “superior tyrosinase activity in comparison to NDP-MSH” value was determined as 19.8%. Moreover, the “elevation of cAMP, comparison with NDP” value with melanocytes strain 105c (0.01 nM and 0.1 nM) was “less elevation of cAMP in comparison to 0.01 nM and 0.1 nM NDP”. Also, the “cAMP, comparison with MSH” value with melanocytes strain 105c (0.1 nM, 1 nM and 10 nM) is “significantly higher than 0.1 nM, 1 nM and 10 nM MSH”. Moreover, in the assay on melanocytes strain 1505b, the “cAMP, potency comparison” value was “more potent than MSH”. Moreover, in the assay with strains 1505b and 1513c [2], the “more cell proliferation and stability than MSH” value is 2.9%; the “more cell proliferation and stability than NDP-MSH” value was found to be 4.0%. Further, the “anti-apoptotic effect (UV-induced apoptosis, Annexin V)” value in the assay with melanocyte strain 103c is “equal anti-apoptotic effect than NDP-MSH”. Also, the “UV-induced hydrogen peroxide generation” value in the assay with melanocytic strain 10.3c is listed as “significant reduction of UV-induced hydrogen peroxide generation”.
